The record followed here is ChEMBL document CHEMBL3301472, “MMV Malaria Box HIV and cytotoxicity screening”.

Common to all, as to assay type: toxicity, cell-based
The nature of series [1]: MMV: MTT Cytotoxicity Assay Day 3 pi, U87-CD4-CCR5 cells, % cell death @ 5mM compound. The conditions noted are these: human, u87-cd4-ccr5, 5000 µM.
Series [2] in a line: MMV: MTT Cytotoxicity Assay Day 3 pi, U87-CD4-CXCR4 cells, % cell death @ 5mM compound. The conditions noted are these: human, u87-cd4-cxcr4, 5000 µM.
A short description of series [3]: MMV: MTT Cytotoxicity Assay Day 7 pi of Assay #10 (NO washout), U87-CD4-CCR5 cells, % cell death @ 5mM compound. The conditions noted are these: human, u87-cd4-ccr5, 5000 µM.
Series [4] can be described thus: MMV: MTT Cytotoxicity Assay Day 7 pi of Assay #6 (compound washed out Day 1 pi), U87-CD4-CCR5 cells, % cell death @ 5mM compound. As to conditions: human, u87-cd4-ccr5, 5000 µM.
The nature of series [5]: MMV: MTT Cytotoxicity Assay Day 7 pi of Assay #7 (compound washed out Day 1 pi), U87-CD4-CXCR4 cells, % cell death @ 5mM compound. The conditions noted are these: human, u87-cd4-cxcr4, 5000 µM.
A short description of series [6]: MMV: MTT Cytotoxicity Assay Day 7 pi of Assay #11 (NO washout), U87-CD4-CXCR4 cells, % cell death @ 5mM compound. As to conditions: human, u87-cd4-cxcr4, 5000 µM.

Turning to `O=C(NC1CCCC1)c1ccc(N2CCC(NCc3cccc(C(F)(F)F)c3)CC2)cc1`, the “% Cell Death” value was 4 in series [1]; 35 in series [2]; -4 in series [3]; -1 in series [4]; 7 in series [5]; 6 in series [6].

Consider `Cc1cccc(-n2ncc3c(O)nc(-n4nc(C)cc4NC(=O)c4cc5ccccc5o4)nc32)c1`, for which the “% Cell Death” value in series [1] was determined as 6; in series [2] it was 39; in series [3] it was 23; in series [4] it was 23; in series [5], 1; in series [6], 82.

On to `CCOc1ccc(-c2nc(NC(=O)c3cccc(S(C)(=O)=O)c3)sc2C)cc1`, for which the “% Cell Death” value in series [1] is listed as 5; in series [2] it was -6; in series [3], 2; in series [4], 0; in series [5], -38; in series [6] it was 29.

Take `CN(C)c1ccc(N=Cc2ccc(N3CCOCC3)cc2)cc1`: the “% Cell Death” value stood at 108 in series [1]; 100 in series [2]; 135 in series [3]; 92 in series [4]; 97 in series [5]; 109 in series [6].

As to `CCCCCCc1cc2cc(-c3csc(C=Cc4ccccc4)n3)c(=O)oc2cc1O`, the “% Cell Death” value in series [1] is 35; in series [2], 41; in series [3], 24; in series [4], -23; in series [5], -39; in series [6], -36.

As to `COc1cc(-c2nc(-c3ccc(Sc4ccccc4)cc3)c(-c3ccccc3)[nH]2)cc(OC)c1O`, the “% Cell Death” value is reported as 18 in series [1]; 29 in series [2]; 33 in series [3]; 5 in series [4]; -13 in series [5]; -41 in series [6].

As for `FC(F)(F)c1ccc(Nc2nnnc3ccccc23)cc1`, the “% Cell Death” value in series [1] is recorded as 67; in series [2] it was 28; in series [3], 121; in series [4], 44; in series [5] it was -10; in series [6] it was 90.

For `Cc1ccc(Nc2nc(NCCO)c3ccccc3n2)cc1C`, the “% Cell Death” value in series [1] is reported as -23; in series [2] it was 28; in series [3], 36; in series [4], 3; in series [5], -22; in series [6], 12.

As to `CC(=O)NCCc1nc2ccccc2n1Cc1ccc(C(C)C)cc1`, the “% Cell Death” value in series [1] is reported as -2; in series [2], 15; in series [3], 13; in series [4] it was 34; in series [5], -3; in series [6], 14.

With `CCOC(=O)C1=CN(C)C=C(C(=O)OCC)C1c1cc(Br)c(OCC)c(OC)c1`, the “% Cell Death” value in series [1] worked out at 80; in series [2], 32; in series [3], 103; in series [4] it was 37; in series [5], 99; in series [6], 6.

`c1ccc2cc3c(Nc4ccc(N5CCOCC5)cc4)ccnc3cc2c1`: the “% Cell Death” value in series [1] turned out to be 91; in series [2], 97; in series [3], 106; in series [4], 99; in series [5] it was 98; in series [6], 108.

For `COc1ccc(C(O)(CCC(C)C)C(CN2CCOCC2)c2ccc(Cl)cc2)cc1.Cl` (configuration not stated), the “% Cell Death” value in series [1] was determined as 72; in series [2] it was 55; in series [3], 102; in series [4] it was 48; in series [5] it was 4; in series [6], 47.

For `COc1ccc(CCN2C(=O)c3[nH]nc(-c4cc(Cl)c(C)cc4O)c3C2c2ccccc2F)cc1` (configuration not stated), the “% Cell Death” value was 19 in series [1]; 32 in series [2]; 47 in series [3]; -35 in series [4]; -18 in series [5]; -26 in series [6].

Consider `Oc1c(C(Nc2ccccn2)c2cccc(Oc3ccccc3)c2)ccc2cccnc12` (configuration not stated), for which the “% Cell Death” value in series [1] is 113; in series [2], 101; in series [3] it was 139; in series [4], 91; in series [5] it was 97; in series [6], 106.

On to `O=C1c2ccccc2-c2nnc(-c3ccc(Br)cc3)cc21`, for which the “% Cell Death” value in series [1] was 2; in series [2], 16; in series [3], 24; in series [4], 1; in series [5], 4; in series [6], -24.

As for `CN(C)c1ccc(C=Cc2nc(=O)c3ccccc3o2)cc1`, the “% Cell Death” value is reported as 39 in series [1]; 38 in series [2]; 46 in series [3]; -14 in series [4]; 0 in series [5]; 20 in series [6].

`O=C(NC1CCN(Cc2ccccc2)CC1)c1cc(-c2ccncc2)nc2ccc(Cl)cc12`: the “% Cell Death” value in series [1] is listed as 13; in series [2], 31; in series [3], 2; in series [4], -18; in series [5] it was 8; in series [6], 58.

On to `CCCCOc1ccc(C(=O)Nc2cc(C)on2)cc1`, for which the “% Cell Death” value in series [1] was 54; in series [2], 31; in series [3], 4; in series [4], -17; in series [5], -14; in series [6], 33.

As to `COc1ccc(Nc2cc(C)nc(NCc3ccccc3)n2)cc1`, the “% Cell Death” value in series [1] is listed as 41; in series [2], 94; in series [3], 92; in series [4], 30; in series [5], 30; in series [6], 73.

Consider `Cc1ccc2nc(C)cc(Nc3cccc(C(F)(F)F)c3)c2c1.Cl`, for which the “% Cell Death” value in series [1] is on record as -13; in series [2], 38; in series [3] it was 72; in series [4] it was 15; in series [5], -9; in series [6], 44.

On to `CCN1CCCC1CNc1[nH]cnc2c3cc(Cl)ccc3nc1-2` (configuration not stated), for which the “% Cell Death” value is 45 in series [1]; 23 in series [2]; 40 in series [3]; 26 in series [4]; -7 in series [5]; 14 in series [6].

For the compound `Cc1ccc(Nc2nc(N)c3ccccc3n2)cc1Cl`, the “% Cell Death” value in series [1] was -34; in series [2], 36; in series [3] it was -2; in series [4] it was -17; in series [5], -9; in series [6], -31.
